Assays:
HEK-293 cells = test: apoptosis/necrosis detection kit, effect on cell fate; type: cell-based; details: for apoptotic cell death: 30 min; for necrotic cell death: 30 min incubation at 37° C.; for toxicity: even in 100 µM
Experimental: (§1) To investigate the effect of compounds according to the invention on cell fate, an apoptosis/necrosis detection kit was used according to the manufacturer’s instruction (Abcam Cat. No.: ab176750). Briefly, HEK-293 cells were incubated with various concentrations of CPPs for 30 min at 37° C. Cells were then washed 3 times and were incubated in 200 µL of Assay Buffer and loaded with CytoCalcein 450, Nuclear Green and Apopxin Deep Red at room temperature for 30-60 min. Following this, cells were washed and imaged. Images were captured using a Zeiss LSM880 confocal microscope with different channels and wavelengths according to each dye: CytoCalcein 450 (Ex/Em = 405/450 nm), Nuclear Green (Ex/Em = 490/520 nm) and Apopxin Deep Red (Ex/Em = 630/660 nm). For each condition, five images were captured and the total number of cells were counted by two independent investigators. Results are visualized in % of total cell number (live/apoptotic/necrotic) (FIG. 1). […] However, the majority of cells survived the treatment.

[1] = as above; type: cell-based; details: human; HEK-293 cells, 100 µM, 30 min; read-out: viable cells after the incubation
Experimental: as §1

CFTR knockout mice = test: severity of lung fibrosis in Cftr knockout mice, nebulized treatment; type: in vivo, mouse
Description: To assess the effect of in vivo administrated Formula (II) on lung histology parameters, this Example use Cftr^tm1UncTg(FABPCFTR)1Jaw/J mice (Jackson Laboratory, Stock No: 002364). FABP-hCFTR-CFTR bitransgenic mice harbor the FABP-hCFTR transgene [rat fatty acid binding protein 2, intestinal promoter directing expression of a human cystic fibrosis transmembrane conductance regulator (ATP-binding cassette sub-family C, member 7) gene] and a targeted knock-out mutation of the cystic fibrosis transmembrane conductance regulator homolog gene (Cftr). The mice used in this study were 8-12 weeks old and weighted 20-25 grams in the case of wild type (WT) animals and 15-17 grams in the case of CFTR knockout animals, the gender ratio was 1:1 for all groups. Experiments were carried out with adherence to the NIH guidelines and the EU directive 2010/63/EU for the protection of animals used for scientific purposes. The study was authorized by the National Scientific Ethical Committee on Animal Experimentation under license number XXI./1540/2020. Formula (II) was dissolved in physiological saline in a concentration of 10 µM. Treated mice received 400 µL Formula (II) dissolved in physiological saline solution in 5 minutes in a nebulizer in continuous oxygen flow (2L/min). Control animals received physiological saline as vehicle. The mice were grouped into 4 treatment groups as follows: wild type control (Group 1), CFTR knockout control (Group 2), wild type treated (Group 3), CFTR knockout treated (Group 4). Treatment was performed daily for 4 weeks. At the end of the experiments, mice received terminal anesthesia and the lungs were removed. Lungs were fixed for histology and trichrome staining was performed to assess lung parenchyma density and lung fibrosis. Sections were digitalized and fibrosis was scored as follows. 1388×1038 resolution pictures were taken with 10x and 40x magnification objectives with Zeiss ICc3 camera. […] Positive pixels were counted as fibrosis, negative pixels were counted as tissue. […]

pancreatic organoids = test: intracellular Cl- level (MQAE) in 3D pancreatic organoids; type: cell-based; details: 100 µM
Experimental: To assess the biological activity of CPPs changes of intracellular Cl^— level was measured by loading HEK-293 cells with 5 µM N-(Ethoxycarbonylmethyl)-6-Methoxyquinolinium Bromide (MQAE; ThermoFischer; Catalog number: E3101) for 30 min in the presence of 0.05% Pluronic F-127. Cells were bathed with Cl^— free external solution and treated with different concentrations of CPPs at 37° C. at the perfusion rate of 2-3 ml/min. Region of interests (ROIs) were determined by the xcellence softver (Olympus) and changes of Cl^— were determined by exciting the cells with an MT20 light source equipped with a 340/11 nm excitation filter. Excitation and emission wavelengths were separated by a 400 nm beam splitter and the emitted light was captured by a Hamamatsu ORCA- ER CCD camera. One measurement per second was obtained. During further analysis the fluorescence signals were normalized to the initial fluorescence intensity (F1/F0) and expressed as normalized MQAE fluorescence (FIG. 2). […] N: 4-5 independent experiments/each tested condition.
To test the Cl^— transporting capability of CPPs in primary 3D cells, organoids were loaded with MQAE as above described and bathed in standard HEPES buffered solution (FIG. 4.). […] N: 4-5 independent experiments/each tested condition.

Row | SMILES | apoptotic cell death (HEK-293 cells; 100 µM) | necrotic cell death (HEK-293 cells) | toxicity (HEK-293 cells) | viability at 0.5 h, 100 µM [1] | apoptotic cell death (HEK-293 cells; 10 µM) | body weight (CFTR knockout mice; all groups, 4 weeks of daily treatment) | adverse events during the treatment (CFTR knockout mice; mice, nebulized daily for 4 weeks) | clinical signs of toxicity (CFTR knockout mice; treated animals, nebulized daily for 4 weeks) | effect on the fluorescent increase after removal of extracellular Cl- (CFTR-mediated Cl- efflux) (pancreatic organoids)
1 | CC[C@H](C)[C@H](NC(=O)[C@H](CCCCN)NC(=O)[C@@H](NC(=O)[C@H](CCC(N)=O)NC(=O)[C@H](CCCNC(=N)N)NC(=O)c1ccc(N=C=S)cc1)[C@@H](C)CC)C(=O)N[C@@H](Cc1c[nH]c2ccccc12)C(=O)N[C@@H](Cc1ccccc1)C(=O)N[C@@H](CCC(N)=O)C(=O)N[C@@H](CC(N)=O)C(=O)N[C@@H](CCCNC(=N)N)C(=O)N[C@@H](CCCNC(=N)N)C(=O)N[C@@H](CCSC)C(=O)N[C@@H](CCCCN)C(=O)N[C@@H](Cc1c[nH]c2ccccc12)C(=O)N[C@@H](CCCCN)C(=O)N[C@@H](CCCCN)C(N)=O [Formula (III)] | limited rate of apoptotic cell death | no necrotic cell death was observed | negligible toxicity | 97.3% | – | – | – | – | –
2 | CC[C@H](C)[C@H](NC(=O)[C@H](CCCCN)NC(=O)[C@@H](NC(=O)[C@H](CCC(N)=O)NC(=O)[C@H](CCCNC(=N)N)NC(=O)CCCCCNC(=S)Nc1cc(C(F)(F)F)cc(C(F)(F)F)c1)[C@@H](C)CC)C(=O)N[C@@H](Cc1c[nH]c2ccccc12)C(=O)N[C@@H](Cc1ccccc1)C(=O)N[C@@H](CCC(N)=O)C(=O)N[C@@H](CC(N)=O)C(=O)N[C@@H](CCCNC(=N)N)C(=O)N[C@@H](CCCNC(=N)N)C(=O)N[C@@H](CCSC)C(=O)N[C@@H](CCCCN)C(=O)N[C@@H](Cc1c[nH]c2ccccc12)C(=O)N[C@@H](CCCCN)C(=O)N[C@@H](CCCCN)C(N)=O [Formula (II)] | limited rate of apoptotic cell death | no necrotic cell death was observed | negligible toxicity | 97.3% | limited rate of apoptotic cell death | maintained their initial weights | no adverse events were observed | No clinical signs of toxicity were observed | –
3 | O=C(O)c1ccc(/C=C2\SC(=S)N(c3cccc(C(F)(F)F)c3)C2=O)cc1 [CFTRinh172] | – | – | – | – | – | – | – | – | almost completely abolished the fluorescent increase

— US20230173084A1, “PEPTIDE-BASED SYNTHETIC CHLORIDE ION TRANSPORTERS” (Tavanta Therapeutics Hungary Incorporated, priority 2019, published 2023)
